Results from PMC3132655, “Synthesis and In Vitro Evaluation of Novel Nortropane Derivatives as Potential Radiotracers for Muscarinic M2 Receptors” (International Journal of Molecular Imaging, 2011).
“And” between values parts separate entries of the source, which are not always exact repeats. Equal entries are not always repeated. Where two headings read alike, the source gives them in different places.

Experiments:
[1] = target: muscarinic M2 receptor; settings: [3H]QNB as reference tracer; ref 27 (Pei et al.); cited from earlier work
[2] = target: T1, recombinant human muscarinic M1 receptor (Homo sapiens, UniProt P11229); assay: competitive binding against [3H]NMS, CHO cell membranes, M1; settings: for selectivity ratio for M2 over M1: ratio of Ki, [3H]NMS; for affinity for M1 (in words): [3H]NMS competition
T1 construct: purchased Perkin Elmer, Waltham, USA; host or cells: CHO cells (membrane suspensions)
T1 sequence (P11229 whole entry): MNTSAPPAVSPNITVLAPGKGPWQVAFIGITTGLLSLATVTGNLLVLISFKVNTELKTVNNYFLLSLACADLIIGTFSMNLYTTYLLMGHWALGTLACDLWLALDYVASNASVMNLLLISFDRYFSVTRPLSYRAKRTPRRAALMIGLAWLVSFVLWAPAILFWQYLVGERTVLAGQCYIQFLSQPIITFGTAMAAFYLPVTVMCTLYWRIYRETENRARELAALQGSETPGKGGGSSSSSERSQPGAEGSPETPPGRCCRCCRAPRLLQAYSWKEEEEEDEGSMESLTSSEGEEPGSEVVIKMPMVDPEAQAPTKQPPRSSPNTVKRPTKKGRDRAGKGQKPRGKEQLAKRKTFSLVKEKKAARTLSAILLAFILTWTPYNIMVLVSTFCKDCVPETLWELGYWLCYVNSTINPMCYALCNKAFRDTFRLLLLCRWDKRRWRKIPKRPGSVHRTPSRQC
Method: (§1) Assays were performed on membrane suspensions from CHO cells expressing either the recombinant human muscarinic M1, M2, or the M3 receptor subtype (Perkin Elmer, Waltham, USA).
(§2) In the competitive binding assays, incubation buffer contained 50 mM TRIS-HCl, 10 mM MgCl2, and 1 mM EDTA (pH 7.4 at 4°C). The assays were incubated during 60 min (M1 or M2 receptor subtypes) or 120 min (M3 receptor subtypes) at 27°C. Nonspecific binding was determined using atropine as a competitor in a concentration of 1 μM.
(§3) In the first series of competitive binding assays, the 6β-4′-iodobenzyl ether (5b) and the 6β-4′-iodobenzoate ester (5c) of 6β-nortropinol, as well as the lead compound 6β-acetoxynortropane (5a), were tested. Protein concentrations for undiluted receptor subtype suspensions were 1.2 mg/mL (M1), 4.3 mg/mL (M2), and 2.0 mg/mL (M3). […] Final competitor concentrations ranged from 1.0 · 10^−10 M to 1.0 · 10^−4 M. After incubation, the reaction was rapidly terminated by vacuum filtration over GF/C glass fiber filters, presoaked in 0.3% polyethylenimine (Sigma-Aldrich, Munich, Germany), and washed 5 times with 1 mL of ice-cold buffer. Filters were placed in vials with 10 mL of scintillation fluid (Ultima Gold, Perkin Elmer, Waltham, USA) and counted in a liquid scintillation counter (Tri-Carb 2900 TR Liquid Scintillation Analyzer, Packard. Software version: 3100).
(§4) In the second series of competitive binding assays, derivative 10a and 10b and the lead compound 6β-acetoxynortropane (5a) were tested. In this series, the protein concentrations for undiluted receptor subtype suspensions were 0.6 mg/mL (M1), 7.5 mg/mL (M2), and 1.5 mg/mL (M3). […] Final competitor concentrations ranged from 1.0 · 10^−10 M to 1.0 · 10^−5 M. After incubation, the assays were filtrated over UniFilter 96 GF/C filter plates, presoaked in 0.3% polyethylenimine (Sigma-Aldrich, Munich, Germany), and washed 9 times with 200 μL of ice-cold buffer. 30 μL of scintillation fluid (MicroScint, Perkin Elmer, Waltham, USA) was added, and the filter plates were counted in a liquid scintillation counter (TopCount 5.0 Liquid Scintillation Analyzer, Perkin Elmer, Waltham, USA).

[3] = target: T2, recombinant human muscarinic M3 receptor (Homo sapiens, UniProt P20309); assay: competitive binding against [3H]NMS, CHO cell membranes, M3; settings: for selectivity ratio for M2 over M3: ratio of Ki, [3H]NMS; for affinity for M3 (in words): [3H]NMS competition
T2 construct: purchased Perkin Elmer, Waltham, USA; host or cells: CHO cells (membrane suspensions)
T2 sequence (P20309 whole entry): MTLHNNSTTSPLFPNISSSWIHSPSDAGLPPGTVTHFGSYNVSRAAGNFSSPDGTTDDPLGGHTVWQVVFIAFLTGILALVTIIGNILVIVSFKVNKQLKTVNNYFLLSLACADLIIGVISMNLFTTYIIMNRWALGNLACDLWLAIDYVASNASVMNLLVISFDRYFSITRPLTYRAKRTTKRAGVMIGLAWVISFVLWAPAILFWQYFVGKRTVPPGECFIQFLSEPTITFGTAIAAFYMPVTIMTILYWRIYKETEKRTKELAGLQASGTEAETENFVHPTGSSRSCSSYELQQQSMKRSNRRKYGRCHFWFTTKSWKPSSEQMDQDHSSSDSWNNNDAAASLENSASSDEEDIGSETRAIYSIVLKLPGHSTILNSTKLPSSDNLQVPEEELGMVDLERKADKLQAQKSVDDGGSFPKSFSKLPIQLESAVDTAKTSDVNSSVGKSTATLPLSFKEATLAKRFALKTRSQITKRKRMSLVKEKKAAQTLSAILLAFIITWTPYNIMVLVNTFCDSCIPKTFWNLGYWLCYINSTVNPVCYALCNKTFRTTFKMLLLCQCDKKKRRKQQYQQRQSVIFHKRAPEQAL
Method: as §1, §2, §3, §4

[4] = target: T3, recombinant human muscarinic M2 receptor (Homo sapiens, UniProt P08172); assay: competitive binding against [3H]NMS, CHO cell membranes, M2; settings: for affinity for M2 (in words): [3H]NMS competition
T3 construct: purchased Perkin Elmer, Waltham, USA; host or cells: CHO cells (membrane suspensions)
T3 sequence (P08172 1-466): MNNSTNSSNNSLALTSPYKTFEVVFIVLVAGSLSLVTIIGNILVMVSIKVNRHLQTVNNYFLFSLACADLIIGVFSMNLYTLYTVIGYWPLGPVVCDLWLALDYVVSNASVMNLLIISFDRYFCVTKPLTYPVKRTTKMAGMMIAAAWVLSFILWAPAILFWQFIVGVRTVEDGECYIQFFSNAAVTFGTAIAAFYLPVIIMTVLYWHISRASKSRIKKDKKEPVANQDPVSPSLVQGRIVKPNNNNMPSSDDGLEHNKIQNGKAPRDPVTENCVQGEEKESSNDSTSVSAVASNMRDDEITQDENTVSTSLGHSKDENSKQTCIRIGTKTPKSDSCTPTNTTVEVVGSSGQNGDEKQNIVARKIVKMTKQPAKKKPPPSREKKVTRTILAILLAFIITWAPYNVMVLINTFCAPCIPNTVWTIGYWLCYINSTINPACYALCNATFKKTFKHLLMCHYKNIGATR
Method: as §1, §2, §3, §4

[5] = first series, n = 3, [3H]NMS 0.2 nM, read-out: Ki for M2

Row | SMILES | Ki [1] | selectivity ratio to the M1 ([2]; abstract) | selectivity ratio for M2 over M1 [2] | selectivity ratio to the M3 ([3]; abstract) | selectivity ratio for M2 over M3 [3] | Ki ([4]; Ki for M2, first series/experiment, n = 3, [3H]NMS 0.2 nM, average ± SD) | Ki ([4]; Ki for M2, second series/experiment, n = 4, [3H]NMS 0.13 nM, average ± SD) | Ki ([4]; Ki to M2 receptors, range over both experiments (abstract)) | affinity for M1 (in words) [2] | affinity for M3 (in words) [3] | affinity for M2 (in words) [4] | Ki [4, 5]
1 | CC(=O)OC1CC2CCCC1N2 (stereo not drawn) [5a, 6β-acetoxynortropane, reference compound] | 2.6 nM | 65 fold | approximately 65 | 70 fold | ~70 | 88.1 nM and 88 nM | 71.6 nM and 71 nM | 70 to 90 nM | – | – | – | –
2 | Ic1ccc(COC2CC3CCCC2N3)cc1 (stereo not drawn) [5b, 6β-4′-iodobenzyl ether of 6β-nortropinol] | – | – | 0.1 | – | 0.2 | – | – | – | weak affinity | weak affinity | weak affinity | 3000 nM
3 | O=C(OC1CC2CCCC1N2)c1ccc(I)cc1 (stereo not drawn) [5c, 6β-4′-iodobenzoate ester of 6β-nortropinol] | – | – | 0.6 | – | 2.0 | – | – | – | weak affinity | weak affinity | weak affinity | 6800 nM
